Patent US20220323406A1, “METHODS AND COMPOSITIONS FOR DIFFERENTIATING STEM CELLS” (Massachusetts Institute of Technology, priority 2019, published 2022)

Legend:
ENR+CD organoids = test: Primary screen: ATP (CellTiter-Glo 3D, CTG) cell number/viability, 2.5-D 384-well ENR+CD organoids; settings: primary screen; for Dose.FC.CTG: FC vs plate median; for Z.CTG: standard z score;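 for all read-outs here: compounds given at plating and again on day 3 over a 6-day differentiation from ENR+CV stem-cell-enriched precursors, ATP measured on day 6, plate median as control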
[1] = tested on: ENR+CD organoids (ISC to Paneth cell differentiation); test: Primary screen: CCh-stimulated lysozyme secretion LYZ.S, 2.5-D 384-well ENR+CD organoid differentiation; assay type: cell-based, mouse; settings: primary screen, FC vs plate median
Text: (§1) High-throughput screening.

[2] = tested on: ENR+CD organoids (ISC to Paneth cell differentiation); test: Primary screen: basal (non-stimulated) lysozyme secretion LYZ.NS, 2.5-D 384-well ENR+CD organoid differentiation; assay type: cell-based, mouse; settings: primary screen; for Z.LYZ.NS: standard z score; for Dose.FC.LYZ.NS: FC vs plate median
Text: as §1

Structure (SMILES) | Dose.FC.CTG (ENR+CD organoids; dose 0.08 uM) | Dose.FC.CTG (ENR+CD organoids; dose 0.40 uM) | Dose.FC.CTG (ENR+CD organoids; dose 2.00 uM) | Dose.FC.CTG (ENR+CD organoids; dose 10.00 uM) | Dose.FC.LYZ.S ([1]; dose 0.08 uM) | Dose.FC.LYZ.S ([1]; dose 0.40 uM) | Dose.FC.LYZ.S ([1]; dose 2.00 uM) | Dose.FC.LYZ.S ([1]; dose 10.00 uM) | Z.LYZ.NS ([2]; dose 0.08 uM) | Z.LYZ.NS ([2]; dose 0.40 uM) | Z.LYZ.NS ([2]; dose 2.00 uM) | Z.LYZ.NS ([2]; dose 10.00 uM) | Dose.FC.LYZ.NS ([2]; dose 0.08 uM) | Dose.FC.LYZ.NS ([2]; dose 0.40 uM) | Dose.FC.LYZ.NS ([2]; dose 2.00 uM) | Dose.FC.LYZ.NS ([2]; dose 10.00 uM) | Z.CTG (ENR+CD organoids; dose 0.08 uM) | Z.CTG (ENR+CD organoids; dose 0.40 uM) | Z.CTG (ENR+CD organoids; dose 2.00 uM) | Z.CTG (ENR+CD organoids; dose 10.00 uM)
COc1ccc2cc([C@H](C)C(=O)O)ccc2c1 [Naproxen] | −0.098 log2 fold change | −0.068 log2 fold change | −0.588 log2 fold change | −1.282 log2 fold change | 0.067 log2 fold change | 0.057 log2 fold change | −0.215 log2 fold change | −0.215 log2 fold change | 1.226 | 0.930 | −0.698 | −1.064 | 0.141 log2 fold change | 0.107 log2 fold change | −0.080 log2 fold change | −0.122 log2 fold change | – | – | – | –
OC(CNCC(O)C1CCc2cc(F)ccc2O1)C1CCc2cc(F)ccc2O1 (stereo not drawn) [Nebivolol] | 0.388 log2 fold change | 0.220 log2 fold change | 0.312 log2 fold change | 0.209 log2 fold change | 0.194 log2 fold change | 0.282 log2 fold change | 0.069 log2 fold change | 0.105 log2 fold change | 1.525 | 2.776 | 0.960 | 0.836 | 0.175 log2 fold change | 0.319 log2 fold change | 0.110 log2 fold change | 0.096 log2 fold change | – | – | – | –
CN1C(=O)C(Cc2c[nH]c3ccccc23)NC1=S (stereo not drawn) [Necrostatin-1] | 0.102 log2 fold change | 0.168 log2 fold change | 0.011 log2 fold change | 0.137 log2 fold change | 0.077 log2 fold change | 0.038 log2 fold change | 0.092 log2 fold change | 0.229 log2 fold change | 0.524 | 0.174 | 1.338 | 0.496 | 0.060 log2 fold change | 0.020 log2 fold change | 0.154 log2 fold change | 0.057 log2 fold change | 0.244 | 0.401 | 0.027 | 0.328
COC(=O)C1=C(C#N)NC(C)=C(C(=O)OC(C)C)C1c1cccc([N+](=O)[O-])c1 (stereo not drawn) [Nilvadipine] | 0.206 log2 fold change | 0.135 log2 fold change | 0.212 log2 fold change | 0.192 log2 fold change | 0.088 log2 fold change | 0.013 log2 fold change | 0.071 log2 fold change | −0.008 log2 fold change | 0.857 | 0.034 | 0.500 | 0.082 | 0.098 log2 fold change | 0.004 log2 fold change | 0.057 log2 fold change | 0.009 log2 fold change | – | – | – | –
Cc1c(Cc2ccc3ccccc3n2)c2cc(F)ccc2n1CC(=O)O [OC000459] | 0.077 log2 fold change | −0.065 log2 fold change | 0.088 log2 fold change | 0.088 log2 fold change | 0.090 log2 fold change | 0.199 log2 fold change | 0.130 log2 fold change | 0.051 log2 fold change | 0.416 | 0.461 | 0.507 | 0.287 | 0.048 log2 fold change | 0.053 log2 fold change | 0.058 log2 fold change | 0.033 log2 fold change | – | – | – | –
